Experimental data from PubChem BioAssay (NCI).
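Step 1: Grow cells in 96-well plates. Step 2: Expose to compound for 48 hours at 5 concentrations. Step 3: Interpolate endpoints linearly; if unreached, use highest concentration. TGI: total growth inhibition.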

Columns and labels:
Assay in all cases: NCI tumour cell line growth inhibition, 48 h
786-0 renal = system: 786-0 renal
A498 renal = system: A498 renal
A549 NSCLC = system: A549 NSCLC
ACHN renal = system: ACHN renal
BT-549 breast = system: BT-549 breast
CAKI-1 renal = system: CAKI-1 renal
CCRF-CEM leukemia = system: CCRF-CEM leukemia
COLO 205 colon = system: COLO 205 colon
DU-145 prostate = system: DU-145 prostate
EKVX NSCLC = system: EKVX NSCLC
HCC-2998 colon = system: HCC-2998 colon
HCT-116 colon = system: HCT-116 colon
HCT-15 colon = system: HCT-15 colon
HL-60(TB) leukemia = system: HL-60(TB) leukemia
HOP-62 NSCLC = system: HOP-62 NSCLC
HOP-92 NSCLC = system: HOP-92 NSCLC
HS 578T breast = system: HS 578T breast
HT29 colon = system: HT29 colon
IGROV1 ovarian = system: IGROV1 ovarian
K-562 leukemia = system: K-562 leukemia
KM12 colon = system: KM12 colon
LOX IMVI melanoma = system: LOX IMVI melanoma
M14 melanoma = system: M14 melanoma
MALME-3M melanoma = system: MALME-3M melanoma
MCF7 breast = system: MCF7 breast
MDA-MB-231 breast = system: MDA-MB-231 breast
MDA-MB-435 = system: MDA-MB-435
MDA-N = system: MDA-N
MOLT-4 leukemia = system: MOLT-4 leukemia
NCI-H226 lung = system: NCI-H226 lung
NCI-H23 lung = system: NCI-H23 lung
NCI-H460 lung = system: NCI-H460 lung
NCI-H522 lung = system: NCI-H522 lung
NCI/ADR-RES ovarian = system: NCI/ADR-RES ovarian
OVCAR-3 ovarian = system: OVCAR-3 ovarian
OVCAR-4 ovarian = system: OVCAR-4 ovarian
OVCAR-5 ovarian = system: OVCAR-5 ovarian
OVCAR-8 ovarian = system: OVCAR-8 ovarian
PC-3 prostate = system: PC-3 prostate
RPMI-8226 leukemia = system: RPMI-8226 leukemia
RXF 393 renal = system: RXF 393 renal
SF-268 CNS = system: SF-268 CNS
SF-295 CNS = system: SF-295 CNS
SF-539 CNS = system: SF-539 CNS
SK-MEL-2 melanoma = system: SK-MEL-2 melanoma
SK-MEL-28 melanoma = system: SK-MEL-28 melanoma
SK-MEL-5 melanoma = system: SK-MEL-5 melanoma
SK-OV-3 ovarian = system: SK-OV-3 ovarian
SN12C renal = system: SN12C renal
SNB-19 CNS = system: SNB-19 CNS
SNB-75 CNS = system: SNB-75 CNS
SR leukemia = system: SR leukemia
SW-620 colon = system: SW-620 colon
T-47D breast = system: T-47D breast
TK-10 renal = system: TK-10 renal
U251 CNS = system: U251 CNS
UACC-257 melanoma = system: UACC-257 melanoma
UACC-62 melanoma = system: UACC-62 melanoma
UO-31 renal = system: UO-31 renal

CC(C)(C)c1cc(C2COC(=O)COCC(=O)OCCOCCOCCO2)cc(C(C)(C)C)c1O (stereo not given)
TGI (786-0 renal): 43.3 µM | TGI (A498 renal): > 91.9 µM | TGI (A549 NSCLC): > 31.6 µM | TGI (ACHN renal): 37.2 µM | TGI (BT-549 breast): > 100 µM | TGI (CAKI-1 renal): 51.3 µM | TGI (CCRF-CEM leukemia): > 100 µM | TGI (COLO 205 colon): > 100 µM | TGI (DU-145 prostate): 41.7 µM | TGI (EKVX NSCLC): > 100 µM | TGI (HCC-2998 colon): 27.9 µM | TGI (HCT-116 colon): > 100 µM | TGI (HCT-15 colon): > 100 µM | TGI (HL-60(TB) leukemia): > 31.6 µM | TGI (HOP-62 NSCLC): > 100 µM | TGI (HOP-92 NSCLC): 59.3 µM | TGI (HS 578T breast): 45.8 µM | TGI (HT29 colon): > 100 µM | TGI (IGROV1 ovarian): > 100 µM | TGI (K-562 leukemia): > 100 µM | TGI (KM12 colon): > 100 µM | TGI (LOX IMVI melanoma): > 80.2 µM | TGI (M14 melanoma): 41.3 µM | TGI (MALME-3M melanoma): > 100 µM | TGI (MCF7 breast): > 100 µM | TGI (MDA-MB-231 breast): > 100 µM | TGI (MDA-MB-435): 43 µM | TGI (MDA-N): 38.5 µM | TGI (MOLT-4 leukemia): > 100 µM | TGI (NCI-H226 lung): > 100 µM | TGI (NCI-H23 lung): > 100 µM | TGI (NCI-H460 lung): 98.5 µM | TGI (NCI-H522 lung): > 100 µM | TGI (NCI/ADR-RES ovarian): > 100 µM | TGI (OVCAR-3 ovarian): > 100 µM | TGI (OVCAR-4 ovarian): > 100 µM | TGI (OVCAR-5 ovarian): > 100 µM | TGI (OVCAR-8 ovarian): > 100 µM | TGI (PC-3 prostate): > 100 µM | TGI (RPMI-8226 leukemia): > 100 µM | TGI (RXF 393 renal): 41.3 µM | TGI (SF-268 CNS): 41.3 µM | TGI (SF-295 CNS): 58.5 µM | TGI (SF-539 CNS): > 79.7 µM | TGI (SK-MEL-2 melanoma): 90.3 µM | TGI (SK-MEL-28 melanoma): 38.9 µM | TGI (SK-MEL-5 melanoma): > 100 µM | TGI (SK-OV-3 ovarian): 55.9 µM | TGI (SN12C renal): 20.8 µM | TGI (SNB-19 CNS): > 100 µM | TGI (SNB-75 CNS): 37 µM | TGI (SR leukemia): > 100 µM | TGI (SW-620 colon): > 100 µM | TGI (T-47D breast): > 100 µM | TGI (TK-10 renal): 43.7 µM | TGI (U251 CNS): > 100 µM | TGI (UACC-257 melanoma): > 100 µM | TGI (UACC-62 melanoma): > 69.1 µM | TGI (UO-31 renal): 35.7 µM

CC[C@@H]1CC[C@@H]2[C@H](CC[C@]3(C)[C@@H](OS(=O)(=O)c4ccc(C)cc4)CC[C@@H]23)[C@H]1CO
TGI (786-0 renal): > 100 µM | TGI (A498 renal): > 100 µM | TGI (A549 NSCLC): > 100 µM | TGI (ACHN renal): > 100 µM | TGI (BT-549 breast): > 100 µM | TGI (CAKI-1 renal): > 100 µM | TGI (CCRF-CEM leukemia): > 100 µM | TGI (COLO 205 colon): > 100 µM | TGI (DU-145 prostate): > 100 µM | TGI (EKVX NSCLC): > 100 µM | TGI (HCC-2998 colon): > 100 µM | TGI (HCT-116 colon): > 100 µM | TGI (HCT-15 colon): > 100 µM | TGI (HL-60(TB) leukemia): > 100 µM | TGI (HOP-62 NSCLC): > 100 µM | TGI (HOP-92 NSCLC): > 100 µM | TGI (HS 578T breast): > 100 µM | TGI (HT29 colon): > 100 µM | TGI (IGROV1 ovarian): > 100 µM | TGI (K-562 leukemia): > 100 µM | TGI (KM12 colon): > 100 µM | TGI (LOX IMVI melanoma): > 100 µM | TGI (M14 melanoma): > 100 µM | TGI (MALME-3M melanoma): > 100 µM | TGI (MCF7 breast): > 100 µM | TGI (MDA-MB-231 breast): > 100 µM | TGI (MDA-MB-435): > 100 µM | TGI (MDA-N): > 100 µM | TGI (MOLT-4 leukemia): > 100 µM | TGI (NCI-H226 lung): > 100 µM | TGI (NCI-H23 lung): > 100 µM | TGI (NCI-H460 lung): > 100 µM | TGI (NCI-H522 lung): > 100 µM | TGI (NCI/ADR-RES ovarian): > 100 µM | TGI (OVCAR-3 ovarian): > 100 µM | TGI (OVCAR-4 ovarian): > 100 µM | TGI (OVCAR-5 ovarian): > 100 µM | TGI (OVCAR-8 ovarian): > 100 µM | TGI (PC-3 prostate): > 100 µM | TGI (RPMI-8226 leukemia): > 100 µM | TGI (RXF 393 renal): > 100 µM | TGI (SF-268 CNS): > 100 µM | TGI (SF-295 CNS): > 100 µM | TGI (SF-539 CNS): > 100 µM | TGI (SK-MEL-28 melanoma): > 100 µM | TGI (SK-MEL-5 melanoma): > 100 µM | TGI (SN12C renal): > 100 µM | TGI (SNB-19 CNS): > 100 µM | TGI (SNB-75 CNS): > 100 µM | TGI (SR leukemia): > 100 µM | TGI (SW-620 colon): > 100 µM | TGI (T-47D breast): > 100 µM | TGI (TK-10 renal): > 100 µM | TGI (U251 CNS): > 100 µM | TGI (UACC-257 melanoma): > 100 µM | TGI (UO-31 renal): 52.5 µM
